# Experimental data reported in US7833532B2, “Immunogenic lipopeptides comprising T-helper and cytotoxic T lymphocyte (CTL) epitopes” (The Council of The Queensland Institute of Medical Research, priority 2002, dated 2010).
# Entries after “also recorded” stand apart in the source; their conditions may differ. Side chains are listed from the residue outwards. Ends that are not written are not given here.
# Key:
# splenocytes = assay: IFN-gamma producing splenocytes after immunization with L. monocytogenes CTL epitope peptides; type: in vivo, BALB/c mice; conditions: 9 nmoles subcutaneously, in vitro stimulation with CTL epitope, day 28
# Text: FIG. 11 is a graphical representation showing induction of interferon-gamma producing cells by lipopeptide. Peptide comprising a T-helper epitope and a CTL epitope of Listeria monocytogenes linked via the epsilon amino group of an internal lysine residue positioned between said epitopes to Pam2Cys (i.e. the peptide [P25]-Lys(Pam2Cys-Ser-Ser)-[LLO91-99] listed in FIG. 2 and based upon SEQ ID NO: 175), or lipopeptide(s) based on this structure in which Pam2Cys was linked through the epsilon amino group of said lysine, were used to inoculate mice. […] Splenocytes were obtained from the immunized animals and stimulated in vitro with either the isolated CTL epitope having the sequence set forth in SEQ ID NO: 172 (open bars) or no antigen (filled bars), and the number of (IFN-gamma) producing cells present was measured 28 days later. […]
# 5 BALB/c mice were inoculated with 9 nmoles of non-lipidated peptide ([P25]-Lys-[LLO91-99]), or lipidated peptide ([P25]-Lys(Pam2Cys-Ser-Ser)-[LLO91-99]) in which lipid was attached between the two epitopes at the approximate centre of the molecule, or with 1000 bacteria. […] The number of interferon-γ producing cells present in spleen was measured on day 28 following in vitro stimulation with the CTL epitope or no antigen. […]
# Listeria monocytogenes = assay: Protection against L. monocytogenes challenge (colony forming units in liver); type: in vivo; conditions: 9 nmol subcutaneously, i.v. challenge 28 days after priming, CFU in liver; relative to non-lipidated peptide or PBS
# Text: FIG. 12 is a graphical representation showing enhanced protection against L. monocytogenes infection for mice immunized with the lipopeptide designated [P25]-Lys(Pam2Cys-Ser-Ser)-[LLO91-99] in FIG. 2 (based upon SEQ ID NO: 175). Five 5 BALB/c mice were inoculated intravenously with 1,000 bacteria (column 1), or immunized subcutaneously with PBS (column 2) or 9 nmol [P25]-Lys(Pam2Cys-Ser-Ser)-[LLO91-99] peptide (column 3) or 9 nmol non-lipidated [P25]-Lys-[LLO091-99] peptide (SEQ ID NO: 175; column 4), as indicated on the x-axis. Mice were challenged with whole bacteria and the number of colony forming units present in liver was measured 28 days post-challenge (ordinate).
# Listeria monocytogenes EGD was cultured overnight at 37° C. on Horse Blood Agar (HBA) plates. The bacteria were washed off the plates using sterile PBS and the concentration adjusted to 5×10^3 Listeria cells/ml. Balb/c mice were infected intravenously with 1×10^3 Listeria cells. The dose was checked retrospectively by plating serial 10-fold dilutions on HBA plates.
# Mice immunized s.c. with 9 nmol peptide immunogen or PBS, or i.v. with 1000 bacteria, were challenged by i.v. injection with bacteria 28 days after priming and the number of colony forming units of bacteria present in the liver determined 28 days after challenge.
substance,measurement,setting,value
[P25]-Lys(Pam2Cys-Ser-Ser)-[LLO91-99]: peptide [P25]-Lys-[LLO91-99] and a lipid of the Formula (IV) conjugated to the epsilon-amino group of the internal lysine (KLIPNASLIENCTKAELK([Ser-Ser-Pam2Cys])GYKDGNEYI),IFN-γ producing cells per million splenocytes relative to non-lipidated peptide or PBS control,splenocytes,about 15 fold
same,protection against challenge with whole bacteria,Listeria monocytogenes,successfully provides protection; also recorded: significantly enhanced protection
